The source of these data is PubChem BioAssay AID179 (DTP/NCI, 2004).

Activity calls are given as the source filed them.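 Rule for the calls: active = compounds giving half or more protection of infected cells from virus-caused growth loss, again on retest; inactive = the rest.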 Where a SMILES comes first, the peptide text is derived from it. Where only a bound is given, the exact number is not on record here.

The assay concerns CEM cells HIV-1 protection, formazan growth assay. In words: NCI AIDS Antiviral Assay. Particulars: for IC50: measured here: growth of uninfected CEM cells. The method, boiled down:
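Protection of CEM cells against HIV-1 was scored from cell growth (soluble formazan) across five concentrations, with parallel uninfected cells. Lack of protection may reflect toxicity.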

Regarding `CCC(C)C(NC(=O)C(N)CCC(=O)O)C(=O)NC(CCCCN)C(=O)NCC(=O)NC(C(=O)NC(C(=O)NC(CC(=O)O)C(=O)NC(CC(C)C)C(=O)NCC(=O)NC(CCCCN)C(=O)O)C(C)O)C(C)O` (centres undefined) (H-EIKGTTDLGK-OH; configuration not given here), the outcome was inactive.

In general, EC50 refers to the concentration at which the effect is half-maximal. One may read the IC50 as the concentration at which inhibition is half-maximal. Lower therefore signals higher potency. On to `C=Cc1ccccn1`, for which the EC50 is more than 200 µM and the IC50 was more than 200 µM.

Take `Cc1c2ccccc2c(CSCC(N)C(=O)O)c2ccccc12` (centres undefined): the EC50 is more than 200 µM and the IC50 is more than 200 µM.

As to `CC1c2c(Cl)nc3ccccc3c2Oc2c1c(Cl)nc1ccccc21`, the EC50 was more than 14.1 µM and the IC50 is more than 14.1 µM.

As for `Nc1nc(N)c(N=O)c(Nc2cccc(Br)c2)n1`, the EC50 is more than 200 µM and the IC50 is 8.51 µM.

Take `COc1ccc2nc3ccc(OC)cc3c(SCc3ccccc3)c2c1`: the EC50 was more than 200 µM and the half-maximal inhibitory concentration (IC50) was more than 100 µM.

On to `COc1ccc(/C(=N/OCCCC(=O)O)c2cccs2)cc1`, for which the outcome was inactive.

In the case of `CCN1C[C@]2(COC)CCC(O)C34[C@@H]5C[C@@H]6C(OC(C)=O)[C@@H]5[C@](OC(C)=O)(C[C@@H]6OC)[C@@H](C(OC)[C@@H]32)[C@H]14` (some centres undefined), the result was inactive.

Take `COc1ccc(NC(=O)CC(=O)n2nc(C)c(N=Nc3ccc(C)c(C)c3)c2C)cc1`: the EC50 is more than 200 µM and the IC50 was more than 200 µM.

Consider `Cc1ccc2nccc(/C=C/c3ccc(N(C)C)cc3)c2c1`, for which the EC50 was more than 13.2 µM and the IC50 is 2.45 µM.

Consider `N=C(/C=C/c1ccc(-c2cn3cc(/C=C/C(=N)N4CCOCC4)ccc3n2)cc1)N1CCOCC1`, for which the EC50 was 162 µM and the IC50 turned out to be 186 µM.

In the case of `COC1OC2COc3ccccc3OC2C(NC#N)C1OC` (centres undefined), the EC50 was more than 145 µM and the IC50 stood at 28.8 µM.

As to `S=c1cc(S)c(=S)[nH][nH]1`, the EC50 was more than 63.1 µM and the IC50 was 19.5 µM.

For `O=C(CSc1nc2ccccc2c(=O)n1-c1ccccc1)N=Nc1c(O)[nH]c2ccc(Br)cc12`, the EC50 is 61.7 µM and the IC50 was 85.1 µM.

In the case of `CC(C)(CCCCC(C)(C)[N+](C)(C)C)[N+](C)(C)C`, the EC50 is more than 200 µM and the IC50 is more than 200 µM.

As for `COc1cc2c(cc1OC)OC(c1c(OC)ccc(OC)c1O)CC2` (centres undefined), the EC50 was more than 100 µM and the IC50 is more than 100 µM.

For the compound `CC(=O)NC(CCCCN(Cc1ccccc1)C(=O)N(CCCl)N=O)C(=O)NCc1ccccc1` (centres undefined), the EC50 was more than 72.4 µM and the IC50 was more than 72.4 µM.

Consider `COC1C(N(C)C)=C(c2ccccc2)C(=O)N2CCc3ccccc3C12` (centres undefined), for which the EC50 was more than 200 µM and the IC50 was determined as 170 µM.

On to `CN1CCCC2[C@@H]3CCC4=C(O)C(=O)CC[C@]4(C)C3CC[C@@]21C` (some centres undefined), for which the EC50 was more than 74.1 µM and the IC50 was more than 74.1 µM.

For the compound `CCCCCCCC(=O)[O-].CCCCCCCC(=O)[O-].N.N.N.N.[Co+3].[O-][Cl+3]([O-])([O-])[O-]`, the outcome was inactive.

As to `Cc1ccc2c(CC(=O)O)cc(=O)oc2c1`, the EC50 is more than 229 µM and the IC50 amounted to 38.9 µM.

Consider `O=C1C=C(c2[nH]c3ccccc3c2C2=CC(=O)c3ccccc3C2=O)C(=O)c2ccccc21`, for which the outcome was inactive.

Consider `Cn1c2ccccc2n2c(=O)c3cc([N+](=O)[O-])ccc3c(C#N)c12`, for which the EC50 was more than 100 µM and the IC50 is more than 100 µM.

For the compound `O=C(Nc1ccccc1)c1cc2ccc(O)c(O)c2cn1`, the EC50 is more than 158 µM and the IC50 was found to be 8.32 µM.

As for `CO[C@H]1C=CO[C@@]2(C)Oc3c(C)c(O)c4c(O)c(c(CN5CCN(C)CC5)c(O)c4c3C2=O)NC(=O)/C(C)=C\C=C[C@H](C)[C@H](O)C(C)[C@@H](O)C(C)[C@H](OC(C)=O)[C@@H]1C` (some centres undefined), the result was inactive.

Turning to `CCOC(=O)c1c(SCCN2CCOCC2)n(-c2ccccc2)c(=S)n(-c2ccccc2)c1=O`, the EC50 is more than 27.5 µM and the IC50 was more than 27.5 µM.

For the compound `O=C(c1ccc(NCN2C(=O)CCC2=O)cc1)c1ccc(NCN2C(=O)CCC2=O)cc1`, the EC50 is more than 30.2 µM and the IC50 is more than 30.2 µM.

Regarding `Clc1ccc(-c2nnc(-c3nn(-c4ccccc4)c4nc5ccccc5nc34)o2)cc1`, the EC50 is more than 1.29 µM and the IC50 was more than 1.29 µM.

Regarding `CCCCC1C=Cn2c(=O)oc3c(OC(C)C)c(OC(C)C)c(O)c1c32` (centres undefined), the EC50 was more than 200 µM and the IC50 came out at 13.2 µM.

As for `O=C1CCCCCN1C(=O)c1ccccc1`, the EC50 was more than 1150 µM and the IC50 was 53.7 µM.

Regarding `N#Cc1ccc(Nc2cnc3ccc(N)cc3n2)cc1`, the EC50 is more than 10.5 µM and the IC50 was more than 10.5 µM.

Turning to `COc1ccc2c(c1)OC(C)(C)C1c3cc(O)c(OCc4ccccc4)cc3OC21` (centres undefined), the EC50 is more than 200 µM and the IC50 came to 16.6 µM.

With `O=c1c2ccccc2nc(-c2ccccc2)n1-c1nccs1`, the EC50 was more than 200 µM and the IC50 came to 22.4 µM.

As to `Cc1nc2cnc(Nc3ccccc3)nc2n(-c2ccccc2)c1=O`, the EC50 is more than 200 µM and the IC50 is more than 200 µM.

With `C=C(Br)CN(C#N)CC(=C)Br`, the EC50 is more than 200 µM and the IC50 was more than 200 µM.

Consider `CN(C)CCNc1ccc(NCCN(C)C)c2c1C(=O)c1ncsc1C2=O`, for which the EC50 is more than 100 µM and the IC50 turned out to be 0.724 µM.

On to `COc1ccc2oc3c4c2c1CCC4CCC3=O` (centres undefined), for which the result was inactive.

With `O=C(OCCOCCO)c1ccccc1-c1c2cc(I)c(=O)c(I)c-2oc2c(I)c(O)c(I)cc12`, the EC50 was more than 200 µM and the IC50 is 5.13 µM.

Take `CCOC(=O)C(NNc1ccccc1)C(c1ccccc1)[P+](c1ccccc1)(c1ccccc1)c1ccccc1` (centres undefined): the EC50 is more than 200 µM and the IC50 came to 3.63 µM.

Take `CCOC(=O)C1=CC(C)(C(=O)OCC)Nc2c(nc(SC)n(C)c2=O)N1` (centres undefined): the EC50 was more than 200 µM and the IC50 stood at 145 µM.

In the case of `COc1cc(C)cc2c1C(=O)C(Br)(Br)CC2`, the EC50 is more than 2 µM and the IC50 was determined as 0.955 µM.

Take `OC1=CN=C(c2ccccc2)Oc2ccccc21`: the EC50 was more than 15.8 µM and the IC50 is more than 15.8 µM.

For the compound `CC(=O)NS(=O)(=O)c1ccc(N=Cc2ccc3c(c2)OCO3)cc1`, the EC50 was more than 200 µM and the IC50 was more than 200 µM.

With `CC1(C)CC(=O)c2c(nc3ccc4ccccc4c3c2-c2ccc(NC(=O)CCCCCCCCC(=O)Nc3ccc(-c4c5c(nc6ccc7ccccc7c46)CC(C)(C)CC5=O)cc3)cc2)C1`, the EC50 was more than 100 µM and the IC50 is more than 100 µM.

Consider `CCC(=O)NC(Nc1cccc(F)c1C)(C(F)(F)F)C(F)(F)F`, for which the EC50 is more than 200 µM and the IC50 is more than 200 µM.

As for `CN(C)CCC(/C=C/c1ccccc1)=N\Nc1ccc(Cl)cc1Cl`, the result was inactive.

Turning to `O=C(/C=C/c1ccc(Cl)c(Cl)c1)Oc1ccc(/C=C2\CCCCC2=O)cc1`, the EC50 was more than 100 µM and the IC50 was 5.25 µM.

As to `CC[N+](C)(C)c1ccc(C(=C2C=CC(=[N+](C)C)C=C2)c2ccc(N(C)C)cc2)cc1`, the outcome was inactive.

Consider `CCOC(=O)c1sc2c(C(=O)OCC)c3ccccn3c2c1C`, for which the outcome was inactive.

Regarding `O=C(O)C(C(=O)O)P(=S)(S)c1ccccc1` (centres undefined), the EC50 was more than 4570 µM and the IC50 is more than 4570 µM.

As for `CCOC(=O)OC(=S)N(C1CCCCC1)C1CCCCC1`, the EC50 is more than 200 µM and the IC50 was 97.7 µM.

Turning to `C=CCNC(=S)N/C=C(/C#N)C(=O)OC`, the outcome was inactive.

As to `C/C(=N\NC(=S)NCCNC(=S)N/N=C(\C)c1ccccn1)c1ccccn1`, the EC50 was more than 200 µM and the IC50 was determined as 3.39 µM.

As to `CC(C)OC(=O)c1ccc(CCC2=CC(=O)C=CC2=O)cc1`, the EC50 was more than 200 µM and the IC50 turned out to be 8.32 µM.

As for `CC(NS(=O)(=O)c1ccc(Cl)cc1)C(=O)O` (centres undefined), the result was inactive.

For the compound `CC(=O)N(CN1C(=O)CCC1C(=O)O)c1cccc(O)c1` (centres undefined), the result was inactive.

For `CCOC(=O)/C(=C/c1cccc(Cl)c1)C(=O)c1ccccc1`, the EC50 is more than 12 µM and the IC50 was more than 12 µM.

Regarding `O=P1(O)Cc2ccccc2-c2ccccc21`, the EC50 was more than 200 µM and the IC50 was more than 200 µM.

`Oc1ccc(Cc2nc3ccccc3[nH]2)cc1`: the EC50 is more than 200 µM and the IC50 is more than 200 µM.

`CC(=O)O[C@H]1CC[C@H]2[C@@H]3CCC4=CC(=O)C=C[C@]4(O)[C@H]3CC[C@]12C`: the EC50 was more than 200 µM and the IC50 is 10.2 µM.

As for `CCOC(=O)C(=O)Nc1ccc([N+](=O)[O-])cc1C#N`, the EC50 is more than 355 µM and the IC50 was more than 355 µM.

With `Cc1cccc(Cl)c1NC(N)=S`, the EC50 was more than 36.3 µM and the concentration for half-maximal inhibition (IC50) was more than 36.3 µM.

Regarding `Cc1ccc2nn(-c3ccc(O)cc3)nc2c1`, the outcome was inactive.

As to `O=S(=O)(N=[Se](=O)(c1ccccc1)c1ccccc1)c1ccccc1`, the EC50 was more than 200 µM and the IC50 stood at 115 µM.

Consider `C=CCNc1nc2c(s1)CCc1cc(OC)c(OC)cc1-2`, for which the EC50 is more than 24 µM and the IC50 was more than 24 µM.

For `CC(=O)SCCCn1c(=O)n(CCCSC(C)=O)c(=O)n(CCCSC(C)=O)c1=O`, the EC50 is more than 200 µM and the IC50 was determined as 12.3 µM.

On to `Cc1onc(-c2c(F)cccc2Cl)c1C(=O)Nc1cc2cc([N+](=O)[O-])ccc2oc1=O`, for which the EC50 was more than 50.1 µM and the IC50 was more than 50.1 µM.

As to `O=C(OCCO)C1CC2CC1C1(C2)OCCO1` (centres undefined), the result was inactive.

As to `Oc1cc2cc(-c3ccccc3)[nH]c2c2ccccc12`, the EC50 is more than 200 µM and the IC50 is 31.6 µM.

Take `Cc1oc2c(C)c3oc(=O)cc(C)c3cc2c1CCl`: the EC50 is more than 20 µM and the IC50 was determined as 2.95 µM.

On to `COc1cc2ccc1NC(=O)N1CCN(CC1)C(=O)Nc1ccc(cc1OC)-c1ccc(c(OC)c1)NC(=O)N1CCN(CC1)C(=O)Nc1ccc-2cc1OC`, for which the EC50 was more than 0.933 µM and the IC50 is more than 0.933 µM.

Consider `CCOP(=O)(OCC)OC1c2[nH]ccc2-c2cc(C(=O)OC)[nH]c2C1OC` (centres undefined), for which the EC50 is more than 200 µM and the IC50 stood at 102 µM.
